In test [1] the target is Peroxisome proliferator-activated receptor gamma/Nuclear receptor coactivator 1 (Homo sapiens, UniProt P37231). As to the kind of experiment: TR-FRET dose response biochemical High Throughput Screening assay for agonists of the steroid receptor coactivator 1 (SRC-1) recruitment by the peroxisome proliferator-activated receptor gamma (PPAR gamma): non-selective agonists. [Related pubchem assays (depositor defined):AID1300, AID1808, AID504735, AID631]. It is filed as protein assay. (TR-FRET usually uses a lanthanide donor and a delayed reading to cut background.)

In test [2] the target is Peroxisome proliferator-activated receptor gamma/Nuclear receptor coactivator 3 (Homo sapiens, UniProt P37231). The test is described as follows: TR-FRET dose response biochemical High Throughput Screening assay for agonists of the steroid receptor coactivator 3 (SRC-3) recruitment by the peroxisome proliferator-activated receptor gamma (PPAR gamma): non-selective agonists. [Related pubchem assays: 1301 (Confirmation screen.), 1048 (Primary screen.)]. It is filed as functional.

Test [3] addresses Peroxisome proliferator-activated receptor gamma/Nuclear receptor coactivator 2 (Homo sapiens, UniProt P37231). As to the kind of experiment: TR-FRET dose response biochemical High Throughput Screening assay for agonists of the steroid receptor coactivator 2 (SRC-2) recruitment by the peroxisome proliferator-activated receptor gamma (PPAR gamma): non-selective agonists. [Related pubchem assays: 1297, 1032 ]. The test is classed as functional.

In test [4] the target is G-protein coupled receptor 55 (Homo sapiens, UniProt Q9Y2T6). As to the kind of experiment: GPR55 antagonists blocking LPI-driven arrestin recruitment, primary screen, imaging, U2OS, beta-arrestin-GFP, LPI agonist (AID 2013).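 Also: antagonist potency measured as reduced agonist-driven arrestin aggregation.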 The test is classed as functional.
Test [5] concerns the target T1, Heat shock factor protein 1 (Mus musculus, UniProt P38532).
T1 sequence (P38532 whole entry): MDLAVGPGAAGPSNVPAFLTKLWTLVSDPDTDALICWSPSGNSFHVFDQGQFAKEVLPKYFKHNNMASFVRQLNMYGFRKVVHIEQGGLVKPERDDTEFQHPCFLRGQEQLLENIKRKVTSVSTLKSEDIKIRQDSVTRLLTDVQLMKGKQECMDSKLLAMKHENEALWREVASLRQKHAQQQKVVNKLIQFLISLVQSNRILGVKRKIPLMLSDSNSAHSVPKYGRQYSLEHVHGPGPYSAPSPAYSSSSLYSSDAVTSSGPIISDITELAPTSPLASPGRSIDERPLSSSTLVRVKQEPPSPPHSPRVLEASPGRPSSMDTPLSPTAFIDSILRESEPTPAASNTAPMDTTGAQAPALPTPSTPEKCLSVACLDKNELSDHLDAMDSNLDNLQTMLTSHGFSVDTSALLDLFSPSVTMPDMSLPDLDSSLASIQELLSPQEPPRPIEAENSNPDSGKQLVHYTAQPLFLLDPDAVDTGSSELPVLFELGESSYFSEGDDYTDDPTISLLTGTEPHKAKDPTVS
As to the kind of experiment: HSF1 potentiators in luciferase reporter cells, confirmation, cell-based, NIH3T3, luminescence, dose retest (AID 435004).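 Also: stress induced by proteasome inhibitor MG132 added 30 min after compound; luciferase reporter driven by HSF1 response element in NIH3T3 cells; actives raise luminescence as potentiators of the MG132 stress response.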 It is filed as functional. (In general: Reporter assays use an easily measured gene product as a stand-in for the process of interest.)

The target of test [6] is Heat shock protein HSP 90-alpha (Homo sapiens, UniProt P07900). It is filed as functional, organism-based.
The target in the next test is T2, Coagulation factor XII (Homo sapiens, UniProt P00748).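 Also: activated factor XIIa alpha cleaving a fluorogenic AMC peptide substrate; inhibitor potency from loss of enzyme activity.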
T2 sequence (P00748 whole entry): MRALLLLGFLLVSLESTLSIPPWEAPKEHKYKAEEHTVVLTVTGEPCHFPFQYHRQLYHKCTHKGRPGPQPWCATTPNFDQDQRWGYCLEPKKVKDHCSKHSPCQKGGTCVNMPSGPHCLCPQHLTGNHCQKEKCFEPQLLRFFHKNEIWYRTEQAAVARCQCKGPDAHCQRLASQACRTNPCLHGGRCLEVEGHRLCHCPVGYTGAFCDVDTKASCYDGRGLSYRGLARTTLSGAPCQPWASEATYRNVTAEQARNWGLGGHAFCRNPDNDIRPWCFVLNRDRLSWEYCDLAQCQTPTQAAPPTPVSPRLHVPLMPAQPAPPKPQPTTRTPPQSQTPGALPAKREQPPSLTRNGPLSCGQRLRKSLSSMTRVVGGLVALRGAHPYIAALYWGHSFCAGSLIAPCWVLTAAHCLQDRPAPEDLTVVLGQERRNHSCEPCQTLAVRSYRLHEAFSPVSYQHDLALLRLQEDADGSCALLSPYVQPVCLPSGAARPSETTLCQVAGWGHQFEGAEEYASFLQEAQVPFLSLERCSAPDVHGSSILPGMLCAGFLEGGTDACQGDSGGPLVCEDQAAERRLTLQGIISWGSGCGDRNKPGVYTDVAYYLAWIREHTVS
The test is classed as functional.

In test [7] the target is Alkaline phosphatase, placental type (Homo sapiens, UniProt P05187). As to the kind of experiment: PLAP enzyme inhibitors, confirmation, biochemical, luminescence (AID 1512). The test is classed as functional.
Test [8] addresses T3, Alkaline phosphatase, tissue-nonspecific isozyme (Homo sapiens, UniProt P05186).
T3 sequence (P05186 whole entry): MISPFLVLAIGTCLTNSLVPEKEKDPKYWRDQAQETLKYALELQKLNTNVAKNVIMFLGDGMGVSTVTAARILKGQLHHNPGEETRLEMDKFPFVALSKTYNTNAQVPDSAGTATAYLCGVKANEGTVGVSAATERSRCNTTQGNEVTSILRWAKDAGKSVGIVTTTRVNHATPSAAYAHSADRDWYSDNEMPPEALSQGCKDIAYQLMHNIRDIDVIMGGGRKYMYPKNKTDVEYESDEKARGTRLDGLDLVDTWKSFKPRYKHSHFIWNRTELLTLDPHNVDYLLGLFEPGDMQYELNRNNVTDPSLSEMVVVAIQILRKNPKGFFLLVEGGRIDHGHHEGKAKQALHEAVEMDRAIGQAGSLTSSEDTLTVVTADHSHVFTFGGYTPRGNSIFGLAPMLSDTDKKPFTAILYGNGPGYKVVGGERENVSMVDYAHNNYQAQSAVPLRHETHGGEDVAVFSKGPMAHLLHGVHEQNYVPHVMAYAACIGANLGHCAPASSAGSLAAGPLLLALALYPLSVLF
As to the kind of experiment: human TNAP enzyme inhibitors, SAR follow-up, biochemical, luminescent, dose response (AID 1056).

The nature of test [9]: inhibitors of intracellular T. cruzi replication, confirmation, NIH3T3 host cells, beta-gal luminescence (AID 2044).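 Also: intracellular parasites grown in NIH/3T3 mouse fibroblasts as host cells; luminescent beta-galactosidase reporter signal from transgenic T. cruzi replicating inside host cells; inhibitors lower the luminescence signal.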 It is filed as functional, cell-based.
Test [10] is described as follows: cytotoxicity toward NIH3T3 fibroblasts, dose response, counter-screen, cell-based, ATP luminescence, mouse fibroblasts (AID 2010).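 Also: cells exposed to compound for about 90 hours before reading.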 It is filed as functional. For orientation: Counterscreens check selectivity or assay interference.
A short description of test [11]: THP-1 cell cytotoxicity, dose response, cytotoxicity control for non-replicating M. tuberculosis project (AID 489025). It is filed as functional.
The nature of test [12]: HepG2 cell cytotoxicity, dose response, cytotoxicity control for non-replicating M. tuberculosis project (AID 489018). The test is classed as functional. The settings on record: Mycobacterium tuberculosis.
The nature of test [13]: Vero E6 cell cytotoxicity, dose response, cytotoxicity control for non-replicating M. tuberculosis project, secondary assay (AID 492998). The settings on record: Vero C1008. The test is classed as functional, VeroE6.
A short description of a further test: cells. The test is classed as functional.
Test [14] has as its target T4, High affinity choline transporter 1 (Homo sapiens, UniProt Q9GZV3).
T4 sequence (Q9GZV3 whole entry): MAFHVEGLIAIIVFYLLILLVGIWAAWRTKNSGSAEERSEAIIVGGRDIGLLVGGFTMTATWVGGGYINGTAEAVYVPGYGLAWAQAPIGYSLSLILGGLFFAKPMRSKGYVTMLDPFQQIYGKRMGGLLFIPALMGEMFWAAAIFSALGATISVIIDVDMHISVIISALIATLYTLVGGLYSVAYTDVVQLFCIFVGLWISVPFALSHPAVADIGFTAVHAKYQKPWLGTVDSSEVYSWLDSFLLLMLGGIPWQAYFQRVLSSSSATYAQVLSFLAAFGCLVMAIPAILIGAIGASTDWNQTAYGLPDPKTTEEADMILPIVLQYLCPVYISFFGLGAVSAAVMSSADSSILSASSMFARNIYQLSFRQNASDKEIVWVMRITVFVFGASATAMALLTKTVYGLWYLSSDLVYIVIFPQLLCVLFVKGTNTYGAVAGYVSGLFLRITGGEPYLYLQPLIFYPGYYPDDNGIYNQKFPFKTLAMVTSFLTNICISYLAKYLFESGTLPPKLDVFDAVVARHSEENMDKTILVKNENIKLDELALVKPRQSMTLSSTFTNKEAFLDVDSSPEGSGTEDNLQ
As to the kind of experiment: CHT inhibitors, dose response, cell-based, 5-point CRC, membrane potential dye (AID 504840). The test is classed as functional.

The target in a further test is Ion channel NompC (Danio rerio, UniProt Q7T1G6). As to the kind of experiment: Dose response cell-based high-throughput screening assay for agonists of the transient receptor potential channel N1 (TRPN1). [Related pubchem assays (depositor defined):AID1424, AID1448]. The test is classed as functional.
The target of a further test is T5, Mucolipin-3 (Homo sapiens, UniProt Q8TDD5).
T5 sequence (Q8TDD5 whole entry): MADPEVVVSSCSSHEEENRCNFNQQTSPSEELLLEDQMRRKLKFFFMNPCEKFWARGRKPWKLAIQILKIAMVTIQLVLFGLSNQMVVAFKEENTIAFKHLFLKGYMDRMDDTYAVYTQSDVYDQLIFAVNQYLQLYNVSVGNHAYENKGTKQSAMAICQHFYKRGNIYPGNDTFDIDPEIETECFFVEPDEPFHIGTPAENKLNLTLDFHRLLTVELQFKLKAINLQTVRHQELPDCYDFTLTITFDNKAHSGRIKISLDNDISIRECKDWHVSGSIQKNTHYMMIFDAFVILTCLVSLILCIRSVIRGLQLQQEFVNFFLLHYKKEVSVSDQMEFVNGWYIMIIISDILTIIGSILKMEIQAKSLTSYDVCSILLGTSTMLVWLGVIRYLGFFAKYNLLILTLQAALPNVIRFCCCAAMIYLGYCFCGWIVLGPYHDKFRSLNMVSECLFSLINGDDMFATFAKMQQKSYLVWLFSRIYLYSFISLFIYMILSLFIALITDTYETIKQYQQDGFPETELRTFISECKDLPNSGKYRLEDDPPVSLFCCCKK
As to the kind of experiment: Fluorescence counterscreen assay for […] agonists: dose response cell-based high-throughput screening assay to identify agonists of the transient receptor potential channel ML3 (TRPML3). [Related pubchem assays: 1424, 1448 ]. It is filed as functional.

Test [15] has as its target Glyceraldehyde-3-phosphate dehydrogenase (Homo sapiens, UniProt P04406).

Consider seven compounds from ChEMBL document CHEMBL1201862, “PubChem BioAssay data set” (2004).

The source made the active and inactive calls.

In general, EC50 refers to the midpoint of the concentration-response curve. What is called IC50 is the concentration needed to halve the response being measured. The AC50 is the midpoint of the concentration-response curve, whichever way the signal moves. As a reminder, the CC50 is the concentration that lowers cell viability or growth by half.

Chain of Peroxisome proliferator-activated receptor gamma/Nuclear receptor coactivator 2 (P37231 whole entry): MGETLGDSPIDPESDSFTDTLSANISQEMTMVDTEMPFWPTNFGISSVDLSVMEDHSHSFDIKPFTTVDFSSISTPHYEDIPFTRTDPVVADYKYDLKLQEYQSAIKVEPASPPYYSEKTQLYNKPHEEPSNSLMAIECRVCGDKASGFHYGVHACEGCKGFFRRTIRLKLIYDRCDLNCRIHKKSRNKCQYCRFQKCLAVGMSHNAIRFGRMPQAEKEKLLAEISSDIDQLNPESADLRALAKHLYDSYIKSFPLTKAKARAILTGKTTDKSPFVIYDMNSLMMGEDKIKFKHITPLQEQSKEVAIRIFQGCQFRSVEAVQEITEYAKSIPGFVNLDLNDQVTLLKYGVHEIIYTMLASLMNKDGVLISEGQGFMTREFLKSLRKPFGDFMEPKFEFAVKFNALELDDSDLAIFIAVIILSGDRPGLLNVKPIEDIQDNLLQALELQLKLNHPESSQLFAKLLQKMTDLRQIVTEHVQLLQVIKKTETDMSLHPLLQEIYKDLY
Chain of Peroxisome proliferator-activated receptor gamma/Nuclear receptor coactivator 2 (Q15596 whole entry, further chain): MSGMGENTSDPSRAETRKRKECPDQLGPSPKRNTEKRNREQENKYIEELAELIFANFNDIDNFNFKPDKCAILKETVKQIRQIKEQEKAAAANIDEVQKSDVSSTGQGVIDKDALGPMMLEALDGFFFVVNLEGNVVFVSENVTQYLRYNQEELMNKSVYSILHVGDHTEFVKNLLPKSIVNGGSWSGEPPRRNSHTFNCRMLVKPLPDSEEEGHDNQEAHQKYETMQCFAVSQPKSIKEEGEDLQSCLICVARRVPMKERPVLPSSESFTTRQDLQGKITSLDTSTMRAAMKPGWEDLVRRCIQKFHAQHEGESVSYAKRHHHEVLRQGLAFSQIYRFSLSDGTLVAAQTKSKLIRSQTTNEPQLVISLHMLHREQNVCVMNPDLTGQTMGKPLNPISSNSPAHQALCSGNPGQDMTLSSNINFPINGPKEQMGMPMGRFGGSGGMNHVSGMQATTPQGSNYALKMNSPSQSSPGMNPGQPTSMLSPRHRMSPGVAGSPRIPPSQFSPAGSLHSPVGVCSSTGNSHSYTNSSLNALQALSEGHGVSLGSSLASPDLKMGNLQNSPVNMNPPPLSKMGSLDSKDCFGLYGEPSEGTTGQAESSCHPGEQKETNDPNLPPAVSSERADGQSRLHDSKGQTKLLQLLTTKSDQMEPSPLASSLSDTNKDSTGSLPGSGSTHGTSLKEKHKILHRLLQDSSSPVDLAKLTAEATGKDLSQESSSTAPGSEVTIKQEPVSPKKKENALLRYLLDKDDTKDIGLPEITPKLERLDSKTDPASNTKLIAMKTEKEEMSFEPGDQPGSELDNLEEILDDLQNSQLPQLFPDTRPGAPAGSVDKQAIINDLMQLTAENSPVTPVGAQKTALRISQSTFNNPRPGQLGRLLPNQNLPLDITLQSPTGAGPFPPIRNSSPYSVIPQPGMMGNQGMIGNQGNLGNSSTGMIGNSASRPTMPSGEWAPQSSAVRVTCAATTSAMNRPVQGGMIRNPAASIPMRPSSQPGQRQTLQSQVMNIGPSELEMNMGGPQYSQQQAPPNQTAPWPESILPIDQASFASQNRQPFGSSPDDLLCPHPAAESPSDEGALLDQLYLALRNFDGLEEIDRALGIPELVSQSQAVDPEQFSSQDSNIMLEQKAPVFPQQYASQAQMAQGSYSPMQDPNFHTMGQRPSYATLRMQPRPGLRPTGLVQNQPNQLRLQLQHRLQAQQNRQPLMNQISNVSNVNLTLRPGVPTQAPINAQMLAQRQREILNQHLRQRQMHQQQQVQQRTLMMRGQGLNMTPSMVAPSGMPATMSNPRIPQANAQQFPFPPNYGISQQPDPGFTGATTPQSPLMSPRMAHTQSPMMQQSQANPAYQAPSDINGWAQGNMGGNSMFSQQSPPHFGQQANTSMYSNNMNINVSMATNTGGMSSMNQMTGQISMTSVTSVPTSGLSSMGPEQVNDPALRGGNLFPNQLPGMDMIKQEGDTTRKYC
Chain of Peroxisome proliferator-activated receptor gamma/Nuclear receptor coactivator 1 (P37231 whole entry): as the sequence (P37231 whole entry) above
Chain of Peroxisome proliferator-activated receptor gamma/Nuclear receptor coactivator 1 (Q15788 whole entry, further chain): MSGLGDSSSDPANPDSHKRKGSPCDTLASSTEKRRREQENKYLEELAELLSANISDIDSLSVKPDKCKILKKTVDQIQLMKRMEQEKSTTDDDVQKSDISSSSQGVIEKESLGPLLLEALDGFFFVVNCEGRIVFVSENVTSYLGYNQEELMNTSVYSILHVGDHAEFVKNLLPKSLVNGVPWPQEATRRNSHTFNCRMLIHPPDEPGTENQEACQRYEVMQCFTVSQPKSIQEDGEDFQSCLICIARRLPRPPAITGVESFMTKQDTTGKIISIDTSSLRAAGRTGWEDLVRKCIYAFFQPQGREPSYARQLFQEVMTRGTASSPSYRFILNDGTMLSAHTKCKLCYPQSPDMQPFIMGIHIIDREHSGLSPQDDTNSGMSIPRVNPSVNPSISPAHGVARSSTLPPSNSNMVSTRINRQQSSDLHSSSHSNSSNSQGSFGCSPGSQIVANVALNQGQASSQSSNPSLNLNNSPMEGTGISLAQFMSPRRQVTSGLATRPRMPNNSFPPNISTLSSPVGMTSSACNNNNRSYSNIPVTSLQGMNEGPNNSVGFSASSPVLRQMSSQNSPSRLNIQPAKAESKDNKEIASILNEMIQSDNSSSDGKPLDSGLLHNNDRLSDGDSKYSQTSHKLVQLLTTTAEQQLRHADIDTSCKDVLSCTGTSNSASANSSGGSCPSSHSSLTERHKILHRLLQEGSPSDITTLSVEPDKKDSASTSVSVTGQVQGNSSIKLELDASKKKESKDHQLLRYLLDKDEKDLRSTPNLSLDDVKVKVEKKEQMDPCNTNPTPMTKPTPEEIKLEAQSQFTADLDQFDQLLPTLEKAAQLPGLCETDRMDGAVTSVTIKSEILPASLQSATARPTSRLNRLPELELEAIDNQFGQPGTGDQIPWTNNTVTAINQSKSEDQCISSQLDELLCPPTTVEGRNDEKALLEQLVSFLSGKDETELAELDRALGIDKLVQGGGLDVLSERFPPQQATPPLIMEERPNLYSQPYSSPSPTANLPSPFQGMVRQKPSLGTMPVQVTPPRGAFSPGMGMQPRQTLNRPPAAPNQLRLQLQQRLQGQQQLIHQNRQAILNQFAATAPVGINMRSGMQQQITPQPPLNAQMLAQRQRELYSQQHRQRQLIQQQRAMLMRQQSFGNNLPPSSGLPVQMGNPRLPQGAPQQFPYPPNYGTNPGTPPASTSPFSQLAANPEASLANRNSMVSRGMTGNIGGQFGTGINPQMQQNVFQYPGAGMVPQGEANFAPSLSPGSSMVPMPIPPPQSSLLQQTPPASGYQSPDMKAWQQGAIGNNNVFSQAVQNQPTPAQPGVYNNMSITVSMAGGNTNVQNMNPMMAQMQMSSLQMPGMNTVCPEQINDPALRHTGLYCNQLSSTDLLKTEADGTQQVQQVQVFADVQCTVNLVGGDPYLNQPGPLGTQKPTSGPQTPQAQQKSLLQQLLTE
Chain of Alkaline phosphatase, placental type (P05187 whole entry): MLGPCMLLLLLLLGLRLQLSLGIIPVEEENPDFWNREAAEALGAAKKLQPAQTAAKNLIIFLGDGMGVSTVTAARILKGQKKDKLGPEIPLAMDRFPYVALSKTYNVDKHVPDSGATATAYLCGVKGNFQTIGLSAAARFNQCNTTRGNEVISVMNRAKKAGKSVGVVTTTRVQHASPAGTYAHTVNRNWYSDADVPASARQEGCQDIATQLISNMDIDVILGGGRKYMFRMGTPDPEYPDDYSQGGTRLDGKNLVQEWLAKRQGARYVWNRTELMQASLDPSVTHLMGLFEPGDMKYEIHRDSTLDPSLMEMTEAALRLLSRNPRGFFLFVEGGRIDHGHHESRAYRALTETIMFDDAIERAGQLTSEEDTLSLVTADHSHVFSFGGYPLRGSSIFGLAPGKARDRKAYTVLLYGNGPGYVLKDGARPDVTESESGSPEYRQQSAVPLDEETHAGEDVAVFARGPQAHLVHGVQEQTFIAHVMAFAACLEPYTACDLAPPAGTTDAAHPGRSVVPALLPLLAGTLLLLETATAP
Chain of G-protein coupled receptor 55 (Q9Y2T6 whole entry): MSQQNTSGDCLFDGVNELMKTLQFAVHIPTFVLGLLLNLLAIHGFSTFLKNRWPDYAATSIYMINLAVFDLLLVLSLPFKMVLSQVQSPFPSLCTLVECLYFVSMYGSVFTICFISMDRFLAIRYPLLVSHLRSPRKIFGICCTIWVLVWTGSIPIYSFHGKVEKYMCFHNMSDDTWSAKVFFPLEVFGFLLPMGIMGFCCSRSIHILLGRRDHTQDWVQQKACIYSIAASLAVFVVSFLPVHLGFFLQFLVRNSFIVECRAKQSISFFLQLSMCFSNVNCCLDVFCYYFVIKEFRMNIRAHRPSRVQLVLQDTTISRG

Take `Brc1ccc(-c2nc3ccccc3s2)s1`: the EC50 is 3.34 µM (active) in [1], 81.4 µM (not active) in test [2] and 3.18 µM (active) in test [3].

With `Cn1c(=O)cc(SCC(=O)N2CCC3(CC2)OCCO3)c2ccccc21`, the EC50 is > 79.4 µM (inactive) in test [1], > 79.4 µM (not active) in test [2] and > 79.4 µM (not active) in test [3].

As for `Clc1ccccc1CN(Cc1ccco1)Cc1nnnn1C1CCCC1`, the IC50 in test [4] is 4.16 µM (active). Also, in test [5], the EC50 is > 260 µM (inactive). For the same compound, the concentration at half-maximal activity (AC50) in test [6] is 5.48 µM (active).

For `Cn1c(SCC(=O)c2ccccc2)nnc1-c1cccc(N)c1`, the IC50 is > 50 µM (inactive) at Coagulation factor XII, > 100 µM (inactive) in test [7] and > 100 µM (inactive) in test [8].

As for `CN(C)CCCn1c(=O)n(CCc2ccccc2)c(=O)c2c3c(sc21)CCCCC3`, the EC50 in test [9] is 0.113 µM (active); in test [10], 36.1 µM (active). In addition, the CC50 was 19.1 µM (active) in test [11], 14.3 µM (active) in test [12] and 12.5 µM (active) in [13]. The figures for the concentration for half-maximal inhibition (IC50) (in the test “cells”; in test [14]) were 21.2 µM (active) and 12.6 µM (active), respectively.

`CCOC(=O)c1ccc(NC(=O)Nc2ccc(F)cc2)cc1`: the EC50 was > 9.97 µM (inactive) on Ion channel NompC and > 29.9 µM (not active) at Mucolipin-3.

Consider `COC(=O)c1cc(-c2cc(F)c(Cl)cc2Cl)n[nH]1`, for which the IC50 in [15] was > 100 µM (not active); in [7], > 100 µM (inactive); in [8] it was 0.911 µM (active).
